Values quoted from earlier work in US6488917B2, “Optical brighteners as bleaching agents” (L'Oreal, priority 1998, dated 2002).

Tested on: melanocytes
Conditions: known from the prior art

Question: Which cytotoxicity towards melanocytes does the source give for `Oc1ccc(O)cc1` [hydroquinone] here?
Answer: known for its cytotoxicity towards melanocytes
